Assays:
purified NLRP6 = experiment: ELISA, binding of HRP-conjugated peptide to purified NLRP6; conditions: HRP-conjugated peptide on NLRP6, 1 h, absorbance 450 nm
Method: DNA encoding full-length NLRP6 was codon optimized and chemically synthesized by Genewiz (Soochow, China). The DNA sequence was subcloned into NdeI-XhoI sites of a pDB-His-MBP vector (kindly given by Pro. Chenggui Han, China Agricultural University, Beijing, China). Recombinant NLRP6 protein was expressed and purified following previous reports, with slight modifications. Briefly, the protein was expressed in E. coli (DE3) at 16 °C with 0.5 mM IPTG induction overnight. Then, the protein was purified by Ni affinity and gel filtration chromatography. The p85α WT and p85α mutant sequences were chemically synthesized and subcloned into BamHI-XhoI sites of a pGEX-6P-1 plasmid by GenScript (Nanjing, China). The E. coli (DE3) transformed with the plasmids were grown in LB medium at 37 °C. The culture medium was supplemented with 0.5 mM IPTG followed by incubation at 16 °C for 16–18 h. The proteins were purified by glutathione-affinity chromatography (Smart-Life Sciences, Changzhou, China) followed by gel filtration chromatography (Cytiva, MA, USA) using PBS. The protein extinction coefficient was calculated by ProtParam, and the protein concentration was determined by the ultraviolet spectrophotometry method.
(§1) The 96-well plate was coated with bovine serum albumin (BSA) or purified NLRP6. HRP-conjugated PepC or HRP-conjugated Pep9 was incubated with BSA or NLRP6 for 1 h, and the unbound peptide was washed away. The HRP substrate was added, and the absorbance was detected at 450 nm. For the competitive ELISA, the 96-well plate was coated with purified p85α. The binding of NLRP6 to p85α competed with 10 μM PepC or 5 μM, 10 μM, 20 μM Pep9 for 1 h.

[1] = test system: bovine serum albumin (BSA); experiment: ELISA, binding of HRP-conjugated peptide to BSA (control); conditions: HRP-conjugated peptide on BSA, 1 h, absorbance 450 nm
Method: as §1

LN18 cells = experiment: Cell proliferation / viability assay, LN18; type: cell-based, Human; conditions: Supplementary Figure 8c
Method: (§2) Cells were seeded into 12-well plates at a density of 1 × 10^4 cells per well. Manual cell counting was carried out at the indicated times using trypan blue and a haemocytometer.
(§3) To determine the antitumour effect of the peptide in vitro, the peptide was incubated with cells for 24 h when the cells were grown to approximately 80% confluence. Cell viability was measured at the indicated time points. The cell lysates were collected for immunoprecipitation as described above. To determine the antitumour effect of the peptide in vivo, the peptide was stereotactically injected using identical coordinates of tumour implantation in 3 μl of PBS. Briefly, 3 weeks after intracranial tumour cell implantation, mice with similar tumour sizes and similar weights were selected and randomly arranged into five groups (n = 6): PBS, PepC (0.25 mg/kg TAT-PepC per injection), Pep9 low dose (Pep9 L, 0.05 mg/kg TAT-Pep9 per injection), Pep9 medium dose (Pep9 M, 0.1 mg/kg TAT-Pep9 per injection), and Pep9 high dose (Pep9 H, 0.25 mg/kg TAT-Pep9 per injection). Each mouse received intratumoural injection every 10 days (at Day 21, Day 31, Day 41, and Day 51), and tumour growth was monitored at Day 21, Day 41, and Day 56. The experiment was terminated at Day 80, and all the mice (if they were alive) were sacrificed as previously described.

HS683 cells = experiment: Cell proliferation / viability assay, HS683; type: cell-based, Human; conditions: Supplementary Figure 8f
Method: as §2, §3

U251 cells = experiment: Cell proliferation / viability assay, U251 (PTEN deficient); type: cell-based, Human; conditions: Supplementary Figure 8i
Method: as §2, §3

p85α = experiment: IHC of p85α in tumour tissues from peptide-treated mice; type: in vivo, nude mice with human tumour cells; conditions: PepC
Method: In brief, the tissue sections were deparaffinized in xylene and 50–100% ethanol sequentially and then rehydrated in deionized water. The sections were immersed in Antigen Retrieval Solution in a pressure cooker and kept at 120 °C for 2.5 min. Endogenous peroxidase activity was blocked with peroxidase blocking reagent (3% hydrogen peroxide in water) for 15 min. The sections were incubated with primary antibodies in incubation buffer at 4 °C overnight. The sections were rinsed with wash buffer and incubated with secondary antibodies at room temperature for 1 h. Finally, the sections were immersed in DAB Chromogen Solution for suitable staining and counterstained with Haematoxylin QS for 3 min. The protein score was calculated by multiplying the percentage of positive cells (<10% = 0, 10–25% = 1, 25–50% = 2, 50–75% = 3, >75% = 4) by the intensity (negative = 0, weak staining = 1, moderate staining = 2, or strong staining = 3). The stained sections were evaluated by two independent pathologists who were blinded to the clinical characteristics.
as §3

SAEGYQYRALYD [Pep1, peptide found on the p85α SH3 domain; selected as the control named PepC]
ELISA value (purified NLRP6; replicate 1): 0.12 | ELISA value (purified NLRP6; replicate 2): 0.10 | ELISA value (purified NLRP6; replicate 3): 0.06 | ELISA value ([1]; replicate 1): 0.10 | ELISA value ([1]; replicate 2): 0.15 | ELISA value ([1]; replicate 3): 0.12 | Relative cell viability (LN18 cells; 5 μM, replicate 1): 0.95 | Relative cell viability (LN18 cells; 5 μM, replicate 2): 0.92 | Relative cell viability (LN18 cells; 5 μM, replicate 3): 0.93 | Relative cell viability (LN18 cells; 10 μM, replicate 1): 0.92 | Relative cell viability (LN18 cells; 10 μM, replicate 2): 0.95 | Relative cell viability (LN18 cells; 10 μM, replicate 3): 0.90 | Relative cell viability (LN18 cells; 20 μM, replicate 1): 0.95 | Relative cell viability (LN18 cells; 20 μM, replicate 2): 0.92 | Relative cell viability (LN18 cells; 20 μM, replicate 3): 0.90 | Relative cell viability (LN18 cells; 30 μM, replicate 1): 0.92 | Relative cell viability (LN18 cells; 30 μM, replicate 2): 0.88 | Relative cell viability (LN18 cells; 30 μM, replicate 3): 0.94 | Relative cell viability (HS683 cells; 5 μM, replicate 1): 0.98 | Relative cell viability (HS683 cells; 5 μM, replicate 2): 0.96 | Relative cell viability (HS683 cells; 5 μM, replicate 3): 0.94 | Relative cell viability (HS683 cells; 10 μM, replicate 1): 0.96 | Relative cell viability (HS683 cells; 10 μM, replicate 2): 0.95 | Relative cell viability (HS683 cells; 10 μM, replicate 3): 0.91 | Relative cell viability (HS683 cells; 20 μM, replicate 1): 0.94 | Relative cell viability (HS683 cells; 20 μM, replicate 2): 0.90 | Relative cell viability (HS683 cells; 20 μM, replicate 3): 0.89 | Relative cell viability (HS683 cells; 30 μM, replicate 1): 0.92 | Relative cell viability (HS683 cells; 30 μM, replicate 2): 0.88 | Relative cell viability (HS683 cells; 30 μM, replicate 3): 0.85 | Relative cell viability (U251 cells; 5 μM, replicate 1): 1.01 | Relative cell viability (U251 cells; 5 μM, replicate 2): 1.04 | Relative cell viability (U251 cells; 5 μM, replicate 3): 0.94 | Relative cell viability (U251 cells; 10 μM, replicate 1): 0.88 | Relative cell viability (U251 cells; 10 μM, replicate 2): 0.87 | Relative cell viability (U251 cells; 10 μM, replicate 3): 0.79 | Relative cell viability (U251 cells; 20 μM, replicate 1): 0.99 | Relative cell viability (U251 cells; 20 μM, replicate 2): 1.04 | Relative cell viability (U251 cells; 20 μM, replicate 3): 0.91 | Relative cell viability (U251 cells; 30 μM, replicate 1): 1.05 | Relative cell viability (U251 cells; 30 μM, replicate 2): 0.89 | Relative cell viability (U251 cells; 30 μM, replicate 3): 0.98 | score (Supplementary Figure 8k) (p85α; replicate 1): 2 | score (Supplementary Figure 8k) (p85α; replicate 2): 1 | score (Supplementary Figure 8k) (p85α; replicate 3): 1 | score (Supplementary Figure 8k) (p85α; replicate 4): 3 | score (Supplementary Figure 8k) (p85α; replicate 5): 1
